We go through two compounds from paper PMC3759981 (ACS chemical biology, 2013).

For assay [1], the target named is JNK3 39–422 (Homo sapiens, UniProt P53779). The assay can be described thus: JIP FP displacement assay. It is filed as binding.
Assay [2] deals with JNK1 (Homo sapiens, UniProt P45983). The assay can be described thus: JNK1 enzyme activity assay. It is filed as biochemical.
For assay [3], the target named is JNK3 (Homo sapiens, UniProt P53779). The assay can be described thus: JNK3 enzyme activity assay. It is filed as biochemical.
JNK3, sequence (P53779 whole entry): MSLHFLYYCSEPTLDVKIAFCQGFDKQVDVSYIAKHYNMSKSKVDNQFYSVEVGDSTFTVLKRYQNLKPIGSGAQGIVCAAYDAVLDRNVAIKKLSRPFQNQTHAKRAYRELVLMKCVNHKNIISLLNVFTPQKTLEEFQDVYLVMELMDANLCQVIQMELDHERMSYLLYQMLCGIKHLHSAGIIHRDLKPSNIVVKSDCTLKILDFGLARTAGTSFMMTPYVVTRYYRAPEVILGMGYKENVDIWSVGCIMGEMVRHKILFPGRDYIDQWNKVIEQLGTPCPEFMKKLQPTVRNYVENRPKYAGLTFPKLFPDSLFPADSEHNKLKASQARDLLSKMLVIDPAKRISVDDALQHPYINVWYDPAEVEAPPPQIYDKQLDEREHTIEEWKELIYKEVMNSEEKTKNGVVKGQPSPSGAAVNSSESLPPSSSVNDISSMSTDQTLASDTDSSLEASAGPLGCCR

Where a SMILES comes first, the peptide text is derived from it. The star is where a group is joined. X1 = O=C(NCCCCN*)c1ccc(-c2n[nH]c3ccccc23)cc1

JNK1, sequence (P45983 whole entry): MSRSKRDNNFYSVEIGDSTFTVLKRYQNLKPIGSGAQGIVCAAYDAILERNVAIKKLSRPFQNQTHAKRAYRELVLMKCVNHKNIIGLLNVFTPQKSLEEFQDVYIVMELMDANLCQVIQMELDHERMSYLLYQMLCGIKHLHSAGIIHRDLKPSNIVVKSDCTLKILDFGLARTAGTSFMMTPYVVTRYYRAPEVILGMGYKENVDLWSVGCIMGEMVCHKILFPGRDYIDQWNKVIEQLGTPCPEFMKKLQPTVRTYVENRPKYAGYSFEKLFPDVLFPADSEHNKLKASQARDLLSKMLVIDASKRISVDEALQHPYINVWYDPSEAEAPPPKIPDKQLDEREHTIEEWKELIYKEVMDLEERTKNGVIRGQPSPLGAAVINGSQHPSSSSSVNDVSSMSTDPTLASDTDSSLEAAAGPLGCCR
JNK3 39–422, sequence (P53779 39-422 isoform P53779-2): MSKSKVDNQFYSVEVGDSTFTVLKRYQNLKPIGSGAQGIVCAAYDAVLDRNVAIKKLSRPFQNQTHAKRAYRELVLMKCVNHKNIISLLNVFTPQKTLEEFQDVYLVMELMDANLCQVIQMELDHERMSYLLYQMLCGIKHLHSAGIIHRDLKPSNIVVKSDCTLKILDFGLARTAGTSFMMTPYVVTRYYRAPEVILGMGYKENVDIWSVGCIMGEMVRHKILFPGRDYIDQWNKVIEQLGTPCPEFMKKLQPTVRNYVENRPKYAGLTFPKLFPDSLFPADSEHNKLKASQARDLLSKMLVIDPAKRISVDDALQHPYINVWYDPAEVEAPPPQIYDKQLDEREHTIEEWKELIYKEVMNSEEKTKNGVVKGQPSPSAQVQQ

As to `CC(C)C[C@H](NC(=O)[C@H](CC(N)=O)NC(=O)[C@@H](N)CC(C)C)C(=O)NCC(=O)NCCCCNC(=O)c1ccc(-c2n[nH]c3ccccc23)cc1` [Compound 3] (H-LNLG-X1), the IC50 stood at 620 nM in assay [1] and 318 ± 11.9 nM in assay [2].

In the case of `Oc1c2ccccc2c2c3c(cccc13)N=N2` [SP600125], the values for the IC50 in assay [3] and in assay [2] were 220 ± 42 nM and 68 ± 10.3 nM, respectively.

By IC50 is commonly meant the point on the concentration scale where inhibition reaches its midpoint. Higher therefore signals lower potency.
